6 compounds from patent publication US20040167112A1, “Use of estrogen receptor alpha modulators for the treatment of multiple sclerosis” (Wyeth, priority 2003, published 2004) can be followed below.

“Also recorded” adds a separate entry of the source.

Assay [1] relates to PLP-primed effector T cells (splenocytes). The assay is described as follows: Proliferation of effector T cells upon antigen (PLP) stimulation, CFSE flow cytometry. It counts as cell-based, SJL mice. The note with it: compound 1 μM, 3 days. An excerpt: Effect of compounds on proliferation of effector T cells upon antigen stimulation To examine the effect of proliferation of effector T cells in vitro in response to PLP stimulation, T-cell proliferation was examined by flow cytometry using the following assay. SJL mice were immunized with PLP emulsified in CFA. After 10 days, spleens were collected and single cell suspensions were made. After lysis of red blood cells, splenocytes were labeled with carboxy fluorescein succinimidyl ester (CFSE). CFSE-labeled cells were then incubated with PLP for 3 days at 37° C., 5% CO2. Compounds were added at a final concentration of 1 μM. To determine the percentage of CD4^+ cells that divided, the CFSE-labeled cells were stained with antibodies specific for the CD4 marker prior to flow cytometric analysis.

Assay [2] deals with experimental autoimmune encephalomyelitis (EAE). The assay is described as follows: EAE induced by adoptive transfer of PLP-primed effector cells: clinical disease. The following applies: for onset, incidence and severity of disease (EAE): ovariectomized female SJL recipient mice, compounds daily s.c. or p.o. from 5-7 days before transfer, severity scale 0-6. It counts as in vivo, SJL mice.

For assay [3], the system named is PLP-primed effector cells (splenocytes). The assay is described as follows: Cytokine production by PLP-primed effector cells upon antigen stimulation in vitro. The class given is cell-based, SJL mice. The following applies: compound 1 μM, 5 μg/ml PLP, 3 days. Here is the method:
To examine in vitro the effect of compounds on cytokine production by PLP-primed effector cells, SJL mice were immunized with PLP emulsified in CFA. After 10 days, spleens were collected and single cell suspensions were made. After lysis of red blood cells, splenocytes were stimulated with 5 μg/ml PLP in the presence of compound for 3 days at 37° C., 5% CO2. Control samples were not stimulated and cultured in medium only (“medium”). Compounds were added at a final concentration of 1 μM. After the 3-day incubation, supernatants were collected and stored at −20° C. Cytokines (TNF-α, IFN-γ, IL-5, IL-4, IL-2) were measured in the supernatants using a Cytometric Bead Array kit.

Assay [4] has as its system experimental autoimmune encephalomyelitis (EAE), brain and spinal cord. The assay is described as follows: Histological analysis of brains and spinal cords of EAE mice at peak disease. The class given is in vivo, SJL mice. As to the method: Histological Analysis. At peak disease (14 days PT), mice were euthanized with CO2. […] Brains were cut into three segments (roughly, anterior cerebrum, midbrain and cerebellum) and embedded as a single block. […] A standard H&E (hematoxylin and eosin) glass slide was prepared from each tissue block (brain and spinal cord) from each mouse submitted with two resulting H&E slides per mouse evaluated. Slides were evaluated and lesions seen were graded subjectively for presence (P=present) and/or severity. […] The location of findings, relative to the organ, was denoted as perivascular, periventricular, ependymal or meningeal, and also as focal (in small areas or not throughout the section), or diffuse (throughout the section examined). Focal was defined as very localized and not affecting every structure. Findings not defined as focal were diffuse or affecting every structure (e.g. all vessels). […] Typical murine models of EAE have scattered foci of slight to moderate-sized aggregates of leukocytes and rarely have diffuse infiltrates in the affected tissues.

[5] abbreviates: Table II, 14 days PT, grade 0-5.
Where [6] appears, read: Table II, 14 days PT, grade 0 within normal limits to 5 severe.
The mark [7] stands for this setting: Table III (ER-selective agonists), 14 days PT.
Where [8] appears, read: Table III (ER-selective agonists), 14 days PT, grade 0-5.

In the case of `Cc1c(-c2ccc(O)cc2)n(Cc2ccc(OCCN3CCCCC3)cc2)c2ccc(O)cc12.Cl.O` [Compound A], in assay [1], the “proliferation of CD4+ cells upon antigen stimulation” value is recorded as “suppressed”, the “proliferation of CD4− cells upon antigen stimulation” value is listed as “suppressed” and the “proliferation of antigen-specific T cells” value was “decreased proliferation”. The “onset, incidence and severity of disease (EAE)” value (“onset, incidence and severity” below) in assay [2] (hydrochloride monohydrate) was “delay in onset as well as decreased incidence and severity of disease; also recorded: delayed onset of disease, as well as decreased incidence and severity”. Further, in assay [3], the “IFN-γ production by effector T cells upon antigen stimulation” value is recorded as “suppressed”, the “IL-4 production by effector T cells upon antigen stimulation” value is given as “concomitant increase”, the “TNF-α production by effector T cells upon antigen stimulation” value is listed as “inhibited” and the “cytokine production by effector cells upon antigen stimulation” value is “decreased cytokine production”. The “demyelination in spinal cords” value in assay [4] (SERM experiment) is given as “no demyelination was detected”. Moreover, in assay [4] (Table II, 14 days PT), the “Brain Meningeal/Perivascular Leukocyte Infiltrates: number of brains with finding/total number evaluated” value is reported as 3/5, the “Spinal Cord Demyelination: number with finding/total number evaluated” value was 0/5 and the “Spinal Cord Meningeal/Perivascular Leukocyte Infiltrates: number with finding/total number evaluated” value was 1/5. For the same compound, in assay [4] (setting [5]), the “Spinal Cord Meningeal/Perivascular Leukocyte Infiltrates: average severity grade of lesions seen” value was 1. Further, in assay [4] (setting [6]), the “Brain Meningeal/Perivascular Leukocyte Infiltrates: average severity grade of lesions seen” value worked out at 2.7. Besides, in assay [4] (compared to mice from other treatment groups (text, SERM experiment)), the “amount of inflammatory cells infiltrating the spinal cords and brains” value is recorded as “reduction”. The “pathology and leukocyte infiltration in the brains and spinal cords” value in assay [4] (conclusions) was “reduced pathology and leukocyte infiltration”.

As to `CCCc1c(-c2ccc(O)cc2)nn(-c2ccc(O)cc2)c1-c1ccc(O)cc1` [PPT, propylpyrazole triol], in assay [4] (setting [7]), the “Spinal Cord Demyelination: number with finding/total number evaluated” value is on record as 0/4 and the “Spinal Cord Meningeal/Perivascular Leukocyte Infiltrates: number with finding/total number evaluated” value is 0/4. Also, the “Brain Meningeal/Perivascular Leukocyte Infiltrates: average severity grade of lesions seen” value in assay [4] (setting [8]) stood at 1.

`C[C@]12CC[C@@H]3c4ccc(O)cc4CC[C@H]3[C@@H]1CC[C@@H]2O` [Compound E2, 17β-estradiol]: in assay [2], the “onset, incidence and severity” value was “delay in onset as well as decreased incidence and severity of disease”. For the same compound, in assay [4] (Table II, 14 days PT), the “Brain Meningeal/Perivascular Leukocyte Infiltrates: number of brains with finding/total number evaluated” value is on record as 4/4, the “Spinal Cord Demyelination: number with finding/total number evaluated” value is “¾” and the “Spinal Cord Meningeal/Perivascular Leukocyte Infiltrates: number with finding/total number evaluated” value is reported as “¾”. In addition, in assay [4] (setting [5]), the “Spinal Cord Demyelination: average severity grade of lesions seen” value (shortened to “Spinal Cord Demyelination … of lesions seen”) is 1.3 and the “Spinal Cord Meningeal/Perivascular Leukocyte Infiltrates: average severity grade of lesions seen” value was determined as 1.7. For the same compound, the “Brain Meningeal/Perivascular Leukocyte Infiltrates: average severity grade of lesions seen” value in assay [4] (setting [6]) turned out to be 2.5. For the same compound, in assay [4] (setting [7]), the “Brain Meningeal/Perivascular Leukocyte Infiltrates: number of brains with finding/total number evaluated” value was 3/4, the “Distribution of Brain Lesions” value was “Meningeal”, the “Spinal Cord Demyelination: number with finding/total number evaluated” value is reported as 1/4 and the “Spinal Cord Meningeal/Perivascular Leukocyte Infiltrates: number with finding/total number evaluated” value was 2/4. Besides, in assay [4] (setting [8]), the “Brain Meningeal/Perivascular Leukocyte Infiltrates: average severity grade of lesions seen” value stood at 1.7, the “Spinal Cord Demyelination … of lesions seen” value is 1 and the “Spinal Cord Meningeal/Perivascular Leukocyte Infiltrates: average severity grade of lesions seen” value amounted to 1.

`C=Cc1cc(O)cc2nc(-c3ccc(O)c(F)c3)oc12` [ERβ-041]: in assay [4] (setting [7]), the “Brain Meningeal/Perivascular Leukocyte Infiltrates: number of brains with finding/total number evaluated” value was 4/4, the “Spinal Cord Demyelination: number with finding/total number evaluated” value was 2/4 and the “Spinal Cord Meningeal/Perivascular Leukocyte Infiltrates: number with finding/total number evaluated” value was 2/4. In assay [4] (setting [8]), the “Brain Meningeal/Perivascular Leukocyte Infiltrates: average severity grade of lesions seen” value was 2.3, the “Spinal Cord Demyelination … of lesions seen” value is 1.5 and the “Spinal Cord Meningeal/Perivascular Leukocyte Infiltrates: average severity grade of lesions seen” value came to 1.5.

On to `C[C@]12CC[C@@H]3c4ccc(O)cc4C[C@@H](CCCCCCCCC[S+]([O-])CCCC(F)(F)C(F)(F)F)[C@H]3[C@@H]1CC[C@@H]2O` (some centres unmarked) [ICI 182,780], for which the “effect of ER antagonist on estrogen-mediated suppression of disease” value in assay [2] (mice treated with both E2 and ICI 182,780) is given as “abolished the effect of E2 on disease”.

For `O=C(c1ccc(OCCN2CCCCC2)cc1)c1c(-c2ccc(O)cc2)sc2cc(O)ccc12` [Raloxifene, raloxifene], the “onset, incidence and severity” value in assay [2] was “delay in onset as well as decreased incidence and severity of disease; also recorded: delayed onset of disease, as well as decreased incidence and severity”.
